How the values were obtained:
Assay in all cases: relative viability (nuclei count vs DMSO), 5 days (fraction); higher = more cells survive
[1] = compound: CN1CCN(c2ccc3nc(-c4c(N)c5c(F)cccc5[nH]c4=O)[nH]c3c2)CC1 [Dovitinib] + CC(C)C[C@H](NC(=O)[C@H](Cc1ccccc1)NC(=O)c1cnccn1)B(O)O [Bortezomib] (partner 0.002 µM)
How it was run: (§1)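 After 5 days of treatment, lung cancer cells in 1536-well plates were fixed and stained in a single step (final 0.05% Triton X-100, 1% formaldehyde, 1 ug/ml Hoechst) and their nuclei counted on 4× images. Treatment had been applied by pin tool the day after seeding as one drug alone or as a fixed anchor-drug dose with five library-drug doses (not always all listed) in √10 steps. Relative viability is the nuclei count of treated wells divided by that of vehicle wells, and values are medians of duplicate plates.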

[2] = compound: CN1CCN(c2ccc3nc(-c4c(N)c5c(F)cccc5[nH]c4=O)[nH]c3c2)CC1 [Dovitinib] + NC(=O)Nc1cc(-c2cccc(F)c2)sc1C(=O)N[C@H]1CCCNC1 [AZD7762] (partner 0.2 µM)
How it was run: as §1

[3] = compound: CN1CCN(c2ccc3nc(-c4c(N)c5c(F)cccc5[nH]c4=O)[nH]c3c2)CC1 [Dovitinib] + Cc1cc(Nc2cc(N3CCN(C)CC3)nc(Sc3ccc(NC(=O)C4CC4)cc3)n2)n[nH]1 [Tozasertib] (partner 0.1 µM)
How it was run: as §1

[4] = compound: CN1CCN(c2ccc3nc(-c4c(N)c5c(F)cccc5[nH]c4=O)[nH]c3c2)CC1 [Dovitinib] + Nc1ncn([C@H]2C[C@H](O)[C@@H](CO)O2)c(=O)n1 [Decitabine] (partner 2 µM)
How it was run: as §1

Row | Cell Line | relative viability ([1]; first compound 0.02 µM) | relative viability ([1]; first compound 0.06325 µM) | relative viability ([1]; first compound 0.2 µM) | relative viability ([1]; first compound 0.6325 µM) | relative viability ([1]; first compound 2 µM) | relative viability ([2]; first compound 0.02 µM) | relative viability ([2]; first compound 0.06325 µM) | relative viability ([2]; first compound 0.2 µM) | relative viability ([2]; first compound 0.6325 µM) | relative viability ([2]; first compound 2 µM) | relative viability ([3]; first compound 0.02 µM) | relative viability ([3]; first compound 0.06325 µM) | relative viability ([3]; first compound 0.2 µM) | relative viability ([3]; first compound 0.6325 µM) | relative viability ([3]; first compound 2 µM) | relative viability ([4]; first compound 0.02 µM) | relative viability ([4]; first compound 0.06325 µM) | relative viability ([4]; first compound 0.2 µM) | relative viability ([4]; first compound 0.6325 µM) | relative viability ([4]; first compound 2 µM)
1 | LOU-NH91 | 0.433 | 0.502 | 0.479 | 0.585 | 0.401 | 0.783 | 0.736 | 0.707 | 0.778 | 0.783 | 0.708 | 0.659 | 0.611 | 0.678 | 0.776 | 0.817 | 0.812 | 0.817 | 0.816 | 0.813
2 | NCI-H3122 | 0.984 | 0.977 | 1.03 | 1.05 | 1.01 | 0.926 | 1.02 | 0.995 | 0.925 | 0.93 | 0.37 | 0.368 | 0.488 | 0.406 | 0.415 | 0.493 | 0.431 | 0.447 | 0.48 | 0.374
3 | PC-3 [JPC-3] | 0.849 | 0.803 | 0.899 | 0.872 | 0.88 | 0.84 | 0.855 | 0.921 | 0.866 | 0.827 | 0.838 | 0.884 | 0.892 | 0.889 | 0.83 | 0.949 | 0.882 | 0.859 | 0.804 | 0.898
4 | NCI-H1651 | 0.957 | 0.961 | 1.03 | 1.02 | 0.91 | 0.45 | 0.507 | 0.505 | 0.466 | 0.429 | 0.61 | 0.65 | 0.691 | 0.682 | 0.733 | 0.578 | 0.62 | 0.577 | 0.652 | 0.59
5 | NCI-H2087 | 0.756 | 1.07 | 0.805 | 0.899 | 0.86 | 1.35 | 1.38 | 1.27 | 1.29 | 1.31 | 0.196 | 0.271 | 0.308 | 0.209 | 0.286 | 0.312 | 0.307 | 0.269 | 0.357 | 0.329

Reference: the supplement of paper PMC10307832
